# Experimental data: US8779004B2, “Stable emulsion formulations” (Amgen, Inc., priority 2006, dated 2014)
# Experiment: Short-term storage stability of emulsions (drug conc., pH, particle size)
# Format: physicochemical
# Conditions: for stability in the emulsion formulation: over 12 weeks, 5° C. and 40° C.; for Cinacalcet conc. / D(4, 3) / pH: emulsion
# Text: This Example illustrates the effect of the storage temperature on short-term stability of the formulations of the invention as measured by pH and the size of the droplets. The results of short term stability of cinacalcet at different temperatures and varying TRIS buffer concentrations are presented in Table 8. Cinacalcet was stable in the emulsion formulation over 12 weeks. The pH of the emulsion is lower over time for both placebo and cinacalcet emulsions. The drop in pH is less at lower storage temperature and higher TRIS concentration.
# The results of short-term stability of cinacalcet at different temperatures and varying DEA buffer concentrations are presented in Table 9. Cinacalcet was stable in the emulsion formulation over 12 weeks. pH of the emulsion is lower over time for both placebo and cinacalcet emulsion. The drop in pH is less at lower storage temperature and higher DEA concentration.
smiles,measurement,setting,value
"C[C@@H](NCCCc1cccc(C(F)(F)F)c1)c1cccc2ccccc12 [Cinacalcet, N-(1-(R)-(1-naphthyl)ethyl]-3-[3-(trifluoromethyl)phenyl]-1-aminopropane]",stability in the emulsion formulation,DEA buffered emulsion,stable
same,stability in the emulsion formulation,TRIS buffered emulsion,stable
same,Cinacalcet conc.,"DEA 0.05%, 5° C., 0 weeks",4.42 mg/mL
same,"D(4, 3)","DEA 0.05%, 5° C., 0 weeks",0.39 µm
same,pH,"DEA 0.05%, 5° C., 0 weeks",8.77
same,Cinacalcet conc.,"DEA 0.05%, 5° C., 2 weeks",4.14 mg/mL
same,"D(4, 3)","DEA 0.05%, 5° C., 2 weeks",0.39 µm
same,pH,"DEA 0.05%, 5° C., 2 weeks",8.64
same,Cinacalcet conc.,"DEA 0.05%, 5° C., 4 weeks",4.35 mg/mL
same,"D(4, 3)","DEA 0.05%, 5° C., 4 weeks",0.4 µm
same,pH,"DEA 0.05%, 5° C., 4 weeks",8.65
same,Cinacalcet conc.,"DEA 0.05%, 5° C., 6 weeks",4.28 mg/mL
same,"D(4, 3)","DEA 0.05%, 5° C., 6 weeks",0.76 µm
same,pH,"DEA 0.05%, 5° C., 6 weeks",8.59
same,Cinacalcet conc.,"DEA 0.05%, 5° C., 8 weeks",4.43 mg/mL
same,"D(4, 3)","DEA 0.05%, 5° C., 8 weeks",0.4 µm
same,pH,"DEA 0.05%, 5° C., 8 weeks",8.67
same,Cinacalcet conc.,"DEA 0.05%, 5° C., 12 weeks",4.29 mg/mL
same,"D(4, 3)","DEA 0.05%, 5° C., 12 weeks",0.4 µm
same,pH,"DEA 0.05%, 5° C., 12 weeks",8.58
same,Cinacalcet conc.,"DEA 0.05%, 40° C., 0 weeks",4.42 mg/mL
same,"D(4, 3)","DEA 0.05%, 40° C., 0 weeks",0.39 µm
same,pH,"DEA 0.05%, 40° C., 0 weeks",8.77
same,Cinacalcet conc.,"DEA 0.05%, 40° C., 2 weeks",4.15 mg/mL
same,"D(4, 3)","DEA 0.05%, 40° C., 2 weeks",0.39 µm
same,pH,"DEA 0.05%, 40° C., 2 weeks",8.46
same,Cinacalcet conc.,"DEA 0.05%, 40° C., 4 weeks",4.30 mg/mL
same,"D(4, 3)","DEA 0.05%, 40° C., 4 weeks",0.4 µm
same,pH,"DEA 0.05%, 40° C., 4 weeks",8.36
same,Cinacalcet conc.,"DEA 0.05%, 40° C., 6 weeks",4.28 mg/mL
same,"D(4, 3)","DEA 0.05%, 40° C., 6 weeks",0.39 µm
same,pH,"DEA 0.05%, 40° C., 6 weeks",8.25
same,Cinacalcet conc.,"DEA 0.05%, 40° C., 8 weeks",4.39 mg/mL
same,"D(4, 3)","DEA 0.05%, 40° C., 8 weeks",0.43 µm
same,pH,"DEA 0.05%, 40° C., 8 weeks",8.29
same,Cinacalcet conc.,"DEA 0.05%, 40° C., 12 weeks",4.31 mg/mL
same,"D(4, 3)","DEA 0.05%, 40° C., 12 weeks",0.43 µm
same,pH,"DEA 0.05%, 40° C., 12 weeks",8.12
same,Cinacalcet conc.,"DEA 0.30%, 5° C., 0 weeks",4.78 mg/mL
same,"D(4, 3)","DEA 0.30%, 5° C., 0 weeks",0.36 µm
same,pH,"DEA 0.30%, 5° C., 0 weeks",9.12
same,Cinacalcet conc.,"DEA 0.30%, 5° C., 2 weeks",4.60 mg/mL
same,"D(4, 3)","DEA 0.30%, 5° C., 2 weeks",0.35 µm
same,pH,"DEA 0.30%, 5° C., 2 weeks",9.07
same,Cinacalcet conc.,"DEA 0.30%, 5° C., 4 weeks",4.67 mg/mL
same,"D(4, 3)","DEA 0.30%, 5° C., 4 weeks",0.37 µm
same,pH,"DEA 0.30%, 5° C., 4 weeks",9.12
same,Cinacalcet conc.,"DEA 0.30%, 5° C., 6 weeks",4.60 mg/mL
same,"D(4, 3)","DEA 0.30%, 5° C., 6 weeks",0.37 µm
same,pH,"DEA 0.30%, 5° C., 6 weeks",9.11
same,Cinacalcet conc.,"DEA 0.30%, 5° C., 8 weeks",4.79 mg/mL
same,"D(4, 3)","DEA 0.30%, 5° C., 8 weeks",0.37 µm
same,pH,"DEA 0.30%, 5° C., 8 weeks",9.15
same,Cinacalcet conc.,"DEA 0.30%, 5° C., 12 weeks",4.66 mg/mL
same,"D(4, 3)","DEA 0.30%, 5° C., 12 weeks",0.36 µm
same,Cinacalcet conc.,"DEA 0.30%, 40° C., 0 weeks",4.78 mg/mL
same,"D(4, 3)","DEA 0.30%, 40° C., 0 weeks",0.36 µm
same,pH,"DEA 0.30%, 40° C., 0 weeks",9.12
same,Cinacalcet conc.,"DEA 0.30%, 40° C., 2 weeks",4.58 mg/mL
same,"D(4, 3)","DEA 0.30%, 40° C., 2 weeks",0.36 µm
same,pH,"DEA 0.30%, 40° C., 2 weeks",8.98
same,Cinacalcet conc.,"DEA 0.30%, 40° C., 4 weeks",4.73 mg/mL
same,"D(4, 3)","DEA 0.30%, 40° C., 4 weeks",0.36 µm
same,pH,"DEA 0.30%, 40° C., 4 weeks",8.99
same,Cinacalcet conc.,"DEA 0.30%, 40° C., 6 weeks",4.65 mg/mL
same,"D(4, 3)","DEA 0.30%, 40° C., 6 weeks",0.36 µm
same,pH,"DEA 0.30%, 40° C., 6 weeks",8.93
same,Cinacalcet conc.,"DEA 0.30%, 40° C., 8 weeks",4.83 mg/mL
same,"D(4, 3)","DEA 0.30%, 40° C., 8 weeks",0.37 µm
same,pH,"DEA 0.30%, 40° C., 8 weeks",8.95
same,Cinacalcet conc.,"DEA 0.30%, 40° C., 12 weeks",4.71 mg/mL
same,"D(4, 3)","DEA 0.30%, 40° C., 12 weeks",0.38 µm
same,Cinacalcet conc.,"TRIS 5 mM, 5° C., 0 weeks",4.43 mg/mL
same,"D(4, 3)","TRIS 5 mM, 5° C., 0 weeks",0.31 µm
same,pH,"TRIS 5 mM, 5° C., 0 weeks",8.80
same,Cinacalcet conc.,"TRIS 5 mM, 5° C., 2 weeks",4.18 mg/mL
same,"D(4, 3)","TRIS 5 mM, 5° C., 2 weeks",0.31 µm
same,pH,"TRIS 5 mM, 5° C., 2 weeks",8.69
same,Cinacalcet conc.,"TRIS 5 mM, 5° C., 4 weeks",4.38 mg/mL
same,"D(4, 3)","TRIS 5 mM, 5° C., 4 weeks",0.3 µm
same,pH,"TRIS 5 mM, 5° C., 4 weeks",8.65
same,Cinacalcet conc.,"TRIS 5 mM, 5° C., 6 weeks",4.33 mg/mL
same,"D(4, 3)","TRIS 5 mM, 5° C., 6 weeks",0.3 µm
same,pH,"TRIS 5 mM, 5° C., 6 weeks",8.59
same,Cinacalcet conc.,"TRIS 5 mM, 5° C., 8 weeks",4.47 mg/mL
same,"D(4, 3)","TRIS 5 mM, 5° C., 8 weeks",0.31 µm
same,pH,"TRIS 5 mM, 5° C., 8 weeks",8.60
same,Cinacalcet conc.,"TRIS 5 mM, 5° C., 12 weeks",4.32 mg/mL
same,"D(4, 3)","TRIS 5 mM, 5° C., 12 weeks",0.31 µm
same,pH,"TRIS 5 mM, 5° C., 12 weeks",8.50
same,Cinacalcet conc.,"TRIS 5 mM, 40° C., 0 weeks",4.43 mg/mL
same,"D(4, 3)","TRIS 5 mM, 40° C., 0 weeks",0.31 µm
same,pH,"TRIS 5 mM, 40° C., 0 weeks",8.80
same,Cinacalcet conc.,"TRIS 5 mM, 40° C., 2 weeks",4.17 mg/mL
same,"D(4, 3)","TRIS 5 mM, 40° C., 2 weeks",0.31 µm
same,pH,"TRIS 5 mM, 40° C., 2 weeks",8.41
same,Cinacalcet conc.,"TRIS 5 mM, 40° C., 4 weeks",4.36 mg/mL
same,"D(4, 3)","TRIS 5 mM, 40° C., 4 weeks",0.31 µm
same,pH,"TRIS 5 mM, 40° C., 4 weeks",8.29
same,Cinacalcet conc.,"TRIS 5 mM, 40° C., 6 weeks",4.29 mg/mL
same,"D(4, 3)","TRIS 5 mM, 40° C., 6 weeks",0.47 µm
same,pH,"TRIS 5 mM, 40° C., 6 weeks",8.20
same,Cinacalcet conc.,"TRIS 5 mM, 40° C., 8 weeks",4.45 mg/mL
same,"D(4, 3)","TRIS 5 mM, 40° C., 8 weeks",0.48 µm
same,pH,"TRIS 5 mM, 40° C., 8 weeks",8.11
same,Cinacalcet conc.,"TRIS 5 mM, 40° C., 12 weeks",4.33 mg/mL
same,"D(4, 3)","TRIS 5 mM, 40° C., 12 weeks",0.36 µm
same,pH,"TRIS 5 mM, 40° C., 12 weeks",8.12
same,Cinacalcet conc.,"TRIS 20 mM, 5° C., 0 weeks",4.92 mg/mL
same,"D(4, 3)","TRIS 20 mM, 5° C., 0 weeks",0.29 µm
same,pH,"TRIS 20 mM, 5° C., 0 weeks",9.13
same,Cinacalcet conc.,"TRIS 20 mM, 5° C., 2 weeks",4.47 mg/mL
same,"D(4, 3)","TRIS 20 mM, 5° C., 2 weeks",0.29 µm
same,pH,"TRIS 20 mM, 5° C., 2 weeks",8.98
same,Cinacalcet conc.,"TRIS 20 mM, 5° C., 4 weeks",4.79 mg/mL
same,"D(4, 3)","TRIS 20 mM, 5° C., 4 weeks",0.29 µm
same,pH,"TRIS 20 mM, 5° C., 4 weeks",8.99
same,Cinacalcet conc.,"TRIS 20 mM, 5° C., 6 weeks",4.72 mg/mL
same,"D(4, 3)","TRIS 20 mM, 5° C., 6 weeks",0.28 µm
same,pH,"TRIS 20 mM, 5° C., 6 weeks",8.87
same,Cinacalcet conc.,"TRIS 20 mM, 5° C., 8 weeks",4.91 mg/mL
same,"D(4, 3)","TRIS 20 mM, 5° C., 8 weeks",0.29 µm
same,pH,"TRIS 20 mM, 5° C., 8 weeks",9.02
same,Cinacalcet conc.,"TRIS 20 mM, 5° C., 12 weeks",4.76 mg/mL
same,"D(4, 3)","TRIS 20 mM, 5° C., 12 weeks",0.29 µm
same,pH,"TRIS 20 mM, 5° C., 12 weeks",8.93
same,Cinacalcet conc.,"TRIS 20 mM, 40° C., 0 weeks",4.92 mg/mL
same,"D(4, 3)","TRIS 20 mM, 40° C., 0 weeks",0.29 µm
same,pH,"TRIS 20 mM, 40° C., 0 weeks",9.13
same,Cinacalcet conc.,"TRIS 20 mM, 40° C., 2 weeks",4.48 mg/mL
same,"D(4, 3)","TRIS 20 mM, 40° C., 2 weeks",0.29 µm
same,pH,"TRIS 20 mM, 40° C., 2 weeks",8.82
same,Cinacalcet conc.,"TRIS 20 mM, 40° C., 4 weeks",4.75 mg/mL
same,"D(4, 3)","TRIS 20 mM, 40° C., 4 weeks",0.29 µm
same,pH,"TRIS 20 mM, 40° C., 4 weeks",8.79
same,Cinacalcet conc.,"TRIS 20 mM, 40° C., 6 weeks",4.73 mg/mL
same,"D(4, 3)","TRIS 20 mM, 40° C., 6 weeks",0.29 µm
same,pH,"TRIS 20 mM, 40° C., 6 weeks",8.75
same,Cinacalcet conc.,"TRIS 20 mM, 40° C., 8 weeks",4.96 mg/mL
same,"D(4, 3)","TRIS 20 mM, 40° C., 8 weeks",0.29 µm
same,pH,"TRIS 20 mM, 40° C., 8 weeks",8.76
same,Cinacalcet conc.,"TRIS 20 mM, 40° C., 12 weeks",4.82 mg/mL
same,"D(4, 3)","TRIS 20 mM, 40° C., 12 weeks",0.29 µm
same,pH,"TRIS 20 mM, 40° C., 12 weeks",8.63
